Measured values published in patent US6545033B1, “Fused 1-(2,6-dichloro-4-trifluoromethylphenyl)-pyrazoles, the synthesis thereof and the use thereof as pesticides” (3-Dimensional Pharmaceuticals, Inc., priority 1999, dated 2003).

Experiments:
[1] = system: houseflies (Musca domestica); experiment: In vivo housefly contact assay; conditions: contact in coated glass test tube, about 24 hours; mM = concentration of the DMSO solution, about 1 μL applied
Description: This example describes an in vivo assay to screen compounds for their ability to kill houseflies via contact. Newly emerged houseflies (Musca domestica, available from Rincon-Vitova Insectaries, Inc., Ventura, Calif.) were sedated with carbon dioxide gas, collected in 50 mL polypropylene conical tubes containing filter paper saturated with 10% (w/w) sucrose in water, and allowed to feed at room temperature for about 2-4 hours. Test compounds were dissolved as in dimethylsulfoxide (DMSO) at concentrations ranging from about 0.05 mM to about 100 mM. About 1 μL of dissolved test compound and about 100 μL of isopropanol were dispensed into the bottom of a 9 mL screw-top glass test tube. Positive control test tubes were prepared in the same manner except that no test compounds were dissolved in the DMSO. Each test tube was rolled to coat the sides with the chemical solution, and allowed to air dry 24-48 hours. About 20 houseflies were sedated by refrigeration at 0-4° C. and transferred to each test tube. Each test tube was sealed with organdy cloth secured by an open top screw cap and laid horizontally in the dark. After about 24 hours, the healthy, moribund, and dead houseflies in each test tube were counted. The percentage of dead houseflies in each test tube was then calculated using the formula M=100(D−(FC/100))/(F−(FC/100)), in which M is the percentage of dead houseflies due to the addition of the test compound, D is the number of dead houseflies in the test tube, F is the total number of houseflies in the test tube, and C is the percentage of dead houseflies in the control test tubes.

[2] = system: cat fleas (Ctenocephalides felis), NC Fleas; experiment: In vivo cat flea contact assay, NC fleas; conditions: contact with treated filter disk in vial, about 24-30 hours; mM = concentration of the DMSO solution, about 1 μL applied
Description: This example describes an in vivo assay to screen compounds for their ability to kill cat fleas via contact.
Test compounds were dissolved in dimethylsulfoxide (DMSO) at concentrations ranging from about 0.05 mM to about 100 mM. About 1 μL of dissolved test compound was dispensed onto a 6 mm (diameter) GF/C filter disk (filter material available from Whatman Inc., Clifton, N.J.) in the bottom of a 4 mL screw-top glass vial and allowed to air dry 24-48 hours. Positive control vials were prepared in the same manner except that no test compounds were dissolved in the DMSO. About 20 newly emerged cat fleas (Ctenocephalides felis) were sedated by refrigeration at 0-4° C. and transferred to each vial. Each vial was sealed with a thin, perforated Teflon™ septum secured by an open top screw cap and held vertically in the dark. After about 24-30 hours, the healthy, moribund, and dead cat fleas in each vial were counted. The percentage of dead cat fleas in each vial was then calculated using the formula M=100(D−(FC/100))/(F−(FC/100)), in which M is the percentage of dead cat fleas due to the addition of the test compound, D is the number of dead cat fleas in the test vial, F is the total number of cat fleas in the test vial, and C is the percentage of dead cat fleas in the control vials.

Row | Structure (SMILES) | LD50 (mM), Flies [1] | LD50 (mM), NC Fleas [2]
1 | FC(F)(F)c1cc(Cl)c(-n2cc3c(n2)CSC3)c(Cl)c1 [Compound 3, 2-[2,6-Dichloro-4-(trifluoromethyl)phenyl]-4,6-dihydrothieno-[3,4-c]pyrazole] | 2.7 mM | 3.0 mM
2 | FC(F)(F)c1cc(Cl)c(-n2cc3c(n2)CCC3)c(Cl)c1 [Compound 11, 2-[2,6-Dichloro-4-(trifluoromethyl)phenyl]-2,4,5,6-tetrahydrocyclopenta[c]pyrazole] | >100 mM | 7 mM
3 | FC(F)(F)c1cc(Cl)c(-n2cc3c(n2)CCCCC3)c(Cl)c1 [Compound 15, 2-[2,6-Dichloro-4-(trifluoromethyl)phenyl]-2,4,5,6,7,8-hexahydrocyclohepta[c]pyrazole] | >100 mM | 33.5 mM
